A short description of data set [1]: Solubility in 50:50 binary mixture with a surfactant. Format: physicochemical.
A further data set relates to immortalised human cells. Kind of data set: In vitro cellular model in NASH/NAFLD: intracellular lipid droplet content. Format: cell-based. The note with it: enriched medium, increasing concentrations, 24 hours. An excerpt: The applicant decided to explore in vitro approaches to test fenofibric acid as a medicinal product inhibiting progression of non-alcoholic fatty liver disease/steatohepatitis. In this field, only a few data obtained in NASH/NAFLD using cellular models have been published, whereas for other liver diseases, the research models and means are more numerous and more studied. In general, immortalised cell lines and primary cell cultures are widely used to develop in vitro models for research. The immortalised primary cells are candidate cells selected for the in vitro study due to the stable phenotype thereof, but also due to a culture method that is simple and standardised to carry out. The immortalised human cells were cultured in an enriched medium containing increasing fenofibric acid concentrations. The purpose of the study consisted of measuring the intracellular lipid droplet content. The entire staining procedure is conducted at ambient temperature while protecting the samples from direct light. The images were acquired with a fluorescence microscope. The intracellular lipid droplet content was determined by labelling. […] This trend is all the more noteworthy at the highest fenofibric acid concentration wherein the quantity and size of the droplets decreased in relation to that observed with the lowest dose.

A short description of data set [2]: Dissolution kinetics, USP type II paddle. The settings on record: for fenofibric acid dissolved: FaSSIF and FeSSIF media. The data set is classed as physicochemical. As for the experimental part:
The applicant studied the dissolution profile of several batches of fenofibric acid received from several suppliers. The starting material batches include different granulometric characteristics including one standard grade (non-micronised) and several micronised batches.
The batches of fenofibric acid were prepared in various pharmaceutical forms including the following excipients: hypromellose, milk protein concentrate, corn starch, Lactose monohydrate (0.4 mg/50 mg of active ingredient), sodium lauryl sulphate as surfactant, magnesium stearate, and talc as a flow agent required during production.
Dissolution tests were carried out on most of the formulation in media such as acetate buffer at […] and purified water. Similarly, the rings were tested in […] media simulating fed and fasting conditions, with addition of enzymes (media referred respectively as FeSSIF and FaSSIF) were also tested after the 50 and 100 mg doses. The USP type II paddle system was retained for the tests with 1000 ml of volume, 37° C. and the samples, taken at 0, 2, 5, 10, 15, 20, 30, 45 and 60 minutes, were analysed by HPLC without replenishing the media.

A short description of data set [3]: In vitro oral penetration study, Franz type diffusion cells. The data set is classed as in vitro ADME, pig. The settings on record: 37° C., different concentrations and pH 4.5-7.4. Here is the method:
One of the preferred modes of administration is the oral mucous membrane route. In order to achieve this, the applicant prepared fenofibric acid solutions from samples provided by the supplier Harman Finochem (India). The in vitro penetration of the fenofibric acid formulation is evaluated using Franz type diffusion cells at 37° C., a system routinely used to evaluate the in vitro penetration of compounds through the skin, but with the oral mucous membrane as the membrane in this instance.
The applicant chose pig oral tissue because it has a non-keratinised morphology, relatively similar to the human oral epithelium (Gandhi, R. B. and Robinson. Adv Drug Deli Rev, 13:43-74, 1994). […]
The receptor compartment is filled with pH 7.4 buffer at 37° C. and the donor compartment with micronised fenofibric acid solution at 37° C. of different concentrations (from 0.2 mg/ml) with a pH also adjusted to pH 7.4 or a solution of fenofibric acid (0.5 mg/ml) in buffer solutions of different pH (4.5, 6.0, 6.8 and 7.4). Samples are taken from the receptor compartment at a predetermined time interval (2, 5, 10, 15, 30, 60, 90, 120, 150 and 180 minutes), replaced by the same volume of buffer and subsequently analysed using the HPLC method.
The quantity of fenofibric acid presented in the […] compartment is determined as a function of time. […]

Data set [4] can be described thus: Aqueous phase solubility as a function of pH / medium. The data set is classed as physicochemical.
The next data set deals with mouse model of NASH. Kind of data set: In vivo mouse model of non-alcoholic steatohepatitis. The note with it: mice on high-fat feed and fructose water, per os once daily. Here is the method: Fenofibric acid is studied at 2 doses and administered per os once daily. […] The number of male mice is 60 for the curative part of the study. They follow the normal light cycle, and are divided into enriched ventilated cages, after a one-week acclimatisation period. The mice are fed with high-fat content feed and fructose-enriched tap water. The mice are treated with the references or with the test formulation according to 2 doses, with daily administration per os for about 2 months. […] At different weeks of treatment, blood is collected to measure the blood glucose level, insulin, total cholesterol and triglyceride level, as well as the ALT and AST levels. After the final collection, the mice are sacrificed to measure the total hepatic cholesterol, triglycerides and fatty acid levels. Liver samples are also collected for histological analysis and the NAS score/index.

A short description of data set [5]: Solubility at saturation of salts and crystalline forms, buffered solution pH 6.0. Format: physicochemical. The settings on record: aqueous buffer pH 6.0, after 24 hours of stirring, European Pharmacopoeia criteria. As for the experimental part:
The purpose of this example is to determine the solubility characteristics of different crystalline forms and salts of fenofibric acid, with a view to administration by the oral mucosal route, in order to treat or forestall patients of liver diseases, such as fatty liver disease.
The solubilisation kinetics are determined by placing fenofibric acid samples at an excess in an aqueous buffered solution at pH 6.0, equivalent to salivary pH. Samples are taken after 0.5, 1, 2, 4, 6, 12 and 24 hours. They are analysed by HPLC after centrifugation and filtration of the samples on a 0.45 μm PTFE filter.
The samples are received from several Indian and Chinese suppliers. Fenofibric acid form II is obtained from a suspension of fenofibrate (ester) in isopropanol.
The results in terms of solubility at saturation (after 24 hours of stirring) are given in the table below and are expressed as per the criteria of the European Pharmacopoeia in force at the time of the tests. The melting points are obtained by DSC (endothermic peak, onset measurement).

In brackets after ≈: the same amount, converted by molar mass. Entries after “also recorded” stand apart in the source; their conditions may differ.

Consider `CC(C)(Oc1ccc(C(=O)c2ccc(Cl)cc2)cc1)C(=O)O` [fenofibric acid, 2-(4-(4-chlorobenzoyl)phenoxy)-2-methylpropanoic], for which the Solubility in water is reported as 56 mg/g in data set [1] (surfactant Cremophor EL, 50:50 binary mixture); 59 mg/g in data set [1] (surfactant Cremophor RH40, 50:50 binary mixture); 55 mg/g in data set [1] (surfactant Labrasol, 50:50 binary mixture); 60 mg/g in data set [1] (surfactant Solutol HS15, 50:50 binary mixture); 61 mg/g in data set [1] (surfactant Tween 80, 50:50 binary mixture). For the same molecule, the “intracellular lipid droplet content” value in the data set with immortalised human cells is listed as “dose-dependent fat reduction”. Besides, the results for the fenofibric acid dissolved entry in data set [2] (after 10 minutes) and in data set [2] (after 30 minutes) were “over 80%” and “entirety”, respectively. Besides, the “dissolution of the active ingredient alone” value in data set [2] (after 60 minutes, paddle, 1000 ml, 37° C.) is reported as “totally dissolved”. For the same molecule, the “penetration through the porcine oral mucous membrane” value in data set [3] is “noteworthy penetration; also recorded: rapidly absorbed”. Besides, the solubility in data set [4] (0.01M sodium lauryl sulphate, aqueous with cosolvent or surfactant or cyclodextrin) was 90 µg/mL (≈ 282 µM); in data set [4] (0.1M sodium lauryl sulphate, aqueous with cosolvent or surfactant or cyclodextrin), 810 µg/mL (≈ 2540 µM); in data set [4] (0.1N HCl, simulated gastric fluid), 2 µg/mL (≈ 6.27 µM); in data set [4] (aqueous buffer, Phosphate buffer pH = 4.5), 40 µg/mL (≈ 125 µM); in data set [4] (aqueous buffer, Phosphate buffer pH = 5.5), 330 µg/mL (≈ 1040 µM); in data set [4] (aqueous buffer, Phosphate buffer pH = 6.5), 1060 µg/mL (≈ 3330 µM). In data set [4] (purified water, water), this molecule had a solubility of 20 µg/mL (≈ 62.7 µM). Also, the “solubility as a function of pH” value in data set [4] (greatest at pH values closest to neutrality) was “increases as a function of pH”. Besides, the “increase in the triglyceride level” value with mouse model of NASH is reported as “significantly inhibit the increase”. Further, in the data set with mouse model of NASH, the “increase in the weight of the liver” value was “significantly inhibit the increase”. For the same molecule, the “plasma ALT concentration” value in the data set with mouse model of NASH is “decreased substantially”; in the data set on mouse model of NASH (listed as Fenofibric acid) it was “notably reduced”. For the same molecule, in the data set on mouse model of NASH (about 2 months), the “development of fatty liver disease (macroscopic and microscopic examination of the liver)” value was “prevented the development of fatty liver disease”. Besides, the “increase in the fatty liver disease activity score” value in the data set with mouse model of NASH (liver histology) is recorded as “significantly inhibit the increase”. Also, the “increase in the fibrotic zones” value in the data set with mouse model of NASH (liver histology) is listed as “significantly inhibit the increase”.

For the molecule `CC(C)(Oc1ccc(C(=O)c2ccc(Cl)cc2)cc1)C(=O)O` [Fenofibric acid form II], the Solubility at saturation entry in data set [5] was “Slightly soluble”.

The values above are taken from patent US20190247343A1, “USE OF FENOFIBRIC ACID IN THE TREATMENT OF HEPATIC DISEASES” (GENCOD, priority 2016, published 2019).
